Earlier results, collected in Sander's compilation of Henry's law constants (doi:10.1007/978-94-007-2275-0).

Assay: Henry solubility constant Hcp at 298.15 K (mol/(m3 Pa))
Details: reference: Warneck and Williams (2012); cited value

Compound | Henry solubility constant Hcp
[Ar] [argon] | 1.4e-05
S=C=S [carbon disulfide] | 0.00061
[C-]#[O+] [carbon monoxide] | 9.7e-06
O=C=S [carbon oxide sulfide] | 0.00021
FC(F)(Cl)Cl [dichlorodifluoromethane] | 3e-05
CSC [dimethyl sulfide] | 0.0056
[N-]=[N+]=O [dinitrogen monoxide] | 0.00024
OO [hydrogen peroxide] | 910
COO [methyl hydroperoxide] | 2.9
[O]N=O [nitrogen dioxide] | 9.9e-05
[N]=O [nitrogen monoxide] | 1.9e-05
O=O [oxygen] | 1.2e-05
CC(=O)OO[N+](=O)[O-] [peroxyacetyl nitrate] | 0.029
FS(F)(F)(F)(F)F [sulfur hexafluoride] | 2.4e-06
FC(F)(F)F [tetrafluoromethane] | 2.1e-06
